Laboratory results reported in patent publication US11395847B2, “Acylated GLP-1/GLP-2 dual agonists” (Zealand Pharma A/S, priority 2016, dated 2022).
*1 amine or outer side, *2 acyl side, *3 side chain or, on linkers, in order; H or OH if unused. Where a SMILES comes first, the peptide text is derived from it. Side-chain parts run from the residue outwards. [ ]: non-standard residue; d: D form. The star is where a group is joined. C20 diacid = O=C(O)CCCCCCCCCCCCCCCCCCC(=O)*; γGlu = O=C(O)[C@H](CCC(=O)[*:2])N[*:1]; AEEA = NCCOCCOCC(=O)O; Aib = CC(C)(N)C(=O)O

Experiment: Chemical stability (RP-HPLC normalized purity after incubation at 40° C.)
Format: physicochemical
Conditions: pH 7, 40° C., 14-day incubation, 0.2 mg/ml, normalized purity (area-%)
Description: Samples of each test peptide were dissolved in MILLIQ™ water, and the pH of the solution was adjusted to pH 6, 7, 7.5 or 9 using either HCl or NaOH. The final peptide concentration was 0.2 mg/ml. Samples were placed in glass vials and incubated at 40° C. The samples were analyzed by RP-HPLC on a C18 column with gradient elution using an acetonitrile/TFA/water eluent system. The area-percentage (area-%) of the main peak after incubation time T=t (relative to time T=0) was determined by UV spectroscopy at 220 nm.
The purity was first determined as follows: Purity(area-%)=(area of main peak/total area of all peaks)×100.
The purity was then normalized between time points by setting purity at time 0 (T=0) to 100 for each pH value for a given peptide, as follows: Normalized area-% at time t(T=t)=[area-%(T=t)/area-%(T=0)]×100.
The chemical stability assessment results after 14-day incubation (in the form of normalized purity values) are summarized in Table 4.

pH 7 normalized stability	Structure (SMILES)
A (>90% normalised stability)	CC[C@H](C)[C@H](NC(=O)[C@H](Cc1ccccc1)NC(=O)[C@H](CC(=O)O)NC(=O)[C@H](CCCNC(=N)N)NC(=O)[C@H](C)NC(=O)[C@H](C)NC(=O)[C@H](CCC(N)=O)NC(=O)[C@H](CCCCNC(=O)COCCOCCNC(=O)COCCOCCNC(=O)CC[C@H](NC(=O)CCCCCCCCCCCCCCCCCCC(=O)O)C(=O)O)NC(=O)[C@H](CC(=O)O)NC(=O)[C@H](CC(C)C)NC(=O)[C@@H](NC(=O)[C@@H](NC(=O)[C@H](C)NC(=O)[C@H](CC(C)C)NC(=O)[C@H](CCC(=O)O)NC(=O)[C@H](CO)NC(=O)[C@@H](NC(=O)[C@H](Cc1ccccc1)NC(=O)[C@H](CO)NC(=O)CNC(=O)[C@H](CCC(=O)O)NC(=O)C(C)(C)NC(=O)[C@@H](N)Cc1c[nH]cn1)[C@@H](C)O)[C@@H](C)O)[C@@H](C)CC)C(=O)N[C@@H](C)C(=O)N[C@@H](Cc1c[nH]c2ccccc12)C(=O)N[C@@H](CC(C)C)C(=O)N[C@@H](CCCCN)C(=O)N[C@@H](CCC(N)=O)C(=O)N[C@@H](Cc1c[nH]cn1)C(=O)N[C@@H](CCCCN)C(=O)N[C@H](C(=O)N[C@H](C(=O)N[C@@H](CC(=O)O)C(=O)O)[C@@H](C)O)[C@@H](C)CC [Compound 34] (H-H[Aib]EGSFTSELATILDK([AEEA-AEEA-γGlu-C20 diacid])QAARDFIAWLKQHKITD-OH)
A (>90% normalised stability)	CC[C@H](C)[C@H](NC(=O)[C@H](Cc1ccccc1)NC(=O)[C@H](CC(=O)O)NC(=O)[C@H](CCCCNC(=O)COCCOCCNC(=O)[C@H](CCCCN)NC(=O)[C@H](CCC(=O)O)NC(=O)[C@H](CCCCN)NC(=O)CC[C@H](NC(=O)CCCCCCCCCCCCCCCCCCC(=O)O)C(=O)O)NC(=O)[C@H](C)NC(=O)[C@H](C)NC(=O)[C@H](CCCCN)NC(=O)[C@H](C)NC(=O)[C@H](CC(=O)O)NC(=O)[C@H](CC(C)C)NC(=O)[C@@H](NC(=O)[C@@H](NC(=O)[C@H](C)NC(=O)[C@H](CC(C)C)NC(=O)[C@H](CCC(=O)O)NC(=O)[C@H](CO)NC(=O)[C@@H](NC(=O)[C@H](Cc1ccccc1)NC(=O)[C@H](CO)NC(=O)CNC(=O)[C@H](CCC(=O)O)NC(=O)C(C)(C)NC(=O)[C@@H](N)Cc1c[nH]cn1)[C@@H](C)O)[C@@H](C)O)[C@@H](C)CC)C(=O)N[C@@H](C)C(=O)N[C@@H](Cc1c[nH]c2ccccc12)C(=O)N[C@@H](CC(C)C)C(=O)N[C@H](C(=O)N[C@@H](CCC(=O)O)C(=O)N[C@@H](Cc1c[nH]cn1)C(=O)N[C@@H](CCCCN)C(=O)N[C@H](C(=O)N[C@H](C(=O)N[C@@H](CC(=O)O)C(=O)O)[C@@H](C)O)[C@@H](C)CC)[C@@H](C)CC [Compound 68] (HELM PEPTIDE1{H.[Aib].E.G.S.F.T.S.E.L.A.T.I.L.D.A.K.A.A.K.D.F.I.A.W.L.I.E.H.K.I.T.D}|PEPTIDE2{[O=C(O)CCCCCCCCCCCCCCCCCCC(=O)[*:2]].[gGlu].K.E.K.[O=C(COCCOCCN[*:1])[*:2]]}$PEPTIDE1,PEPTIDE2,20:R3-6:R2$$$V2.0)
